These compounds were tested against T1, human FSH receptor (Homo sapiens, UniProt P23945) (assay: Antagonistic activity at the human FSH receptor expressed in CHO cells (CRE-luciferase reporter)). Details: CHO cells stably transfected with human FSH receptor and CRE-luciferase; with 49 μM recFSH; 4 hours incubation; read-out: IC50 (inhibition of recFSH-induced luciferase stimulation).
T1 construct: expressed in transfected cells; host or cells: CHO (Chinese Hamster Ovary) cells, stably transfected; cotransfected with a CRE-luciferase reporter
T1 sequence (P23945 18-695): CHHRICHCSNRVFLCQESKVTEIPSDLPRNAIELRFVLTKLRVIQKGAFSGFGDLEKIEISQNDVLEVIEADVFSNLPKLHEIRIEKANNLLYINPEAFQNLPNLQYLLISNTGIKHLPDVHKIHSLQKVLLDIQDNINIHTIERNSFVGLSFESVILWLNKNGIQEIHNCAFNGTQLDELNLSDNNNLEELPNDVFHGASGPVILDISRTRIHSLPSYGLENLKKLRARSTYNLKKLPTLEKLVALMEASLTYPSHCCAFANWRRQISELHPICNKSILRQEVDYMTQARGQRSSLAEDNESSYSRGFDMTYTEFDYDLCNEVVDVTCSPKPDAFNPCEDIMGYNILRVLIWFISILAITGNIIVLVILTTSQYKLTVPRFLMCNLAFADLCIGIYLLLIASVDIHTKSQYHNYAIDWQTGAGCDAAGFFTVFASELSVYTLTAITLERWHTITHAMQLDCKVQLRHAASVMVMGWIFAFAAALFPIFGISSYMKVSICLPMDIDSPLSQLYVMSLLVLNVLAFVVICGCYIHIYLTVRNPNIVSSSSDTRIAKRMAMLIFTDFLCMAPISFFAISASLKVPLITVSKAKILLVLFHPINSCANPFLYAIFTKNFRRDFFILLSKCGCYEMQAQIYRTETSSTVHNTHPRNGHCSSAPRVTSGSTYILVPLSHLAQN
Format: cell-based
Procedure: Antagonistic Activity of Compounds at the Human FSH Receptor Expressed in CHO Cells
Antagonistic activity of the compounds at the human FSH receptor was determined in Chinese Hamster Ovary (CHO) cells stably transfected with the human FSH receptor and cotransfected to with a cAMP responsive element (CRE)/promoter directing the expression of a firefly luciferase reporter gene. Binding of the compounds to the Gs protein-coupled FSH receptor will result in an increase of cAMP, which in turn will induce an increased transactivation of the luciferase reporter. The cells (7,500 cells/well of a 384 well plate) were incubated in Dulbecco′ minimal essential F12 modified medium (Invitrogen), supplemented with 1 μg/ml bovine insulin, 5 μg/ml human apo-transferrin, 100 U/ml penicillin G and 100 μg/ml streptomycin with the test compounds (concentration between 0.316 nM and 10.0 μM) in duplicate together with […] recFSH (which, at this concentration in the absence of test compound, induces 80% of the maximal luciferase stimulation) in a humidified atmosphere (95%) at 5-7% CO2 and 37° C. The final concentration of DMSO was 1%. After 4 hours of incubation, plates were allowed to adjust to room temperature for 1 hour. Then, SteadyLite (PerkinElmer) solution was added to the wells and cells were allowed to lyse for at least 1 hour at room temperature. Subsequently, luciferase activity was measured in a luminescence counter. The signal is expressed as counts per second (cps). The IC50 (concentration of test compound causing half-maximal (50%) inhibition of the maximally attainable inhibition of the luciferase stimulation by the compound) and efficacy of the compounds were determined using the software program MathIQ (version 2.3, ID Business Solutions Limited).

| Structure (SMILES) | IC50 [nM] |
| --- | --- |
| C=CCOc1cc2c(cc1OC)-c1cc(C(=O)N[C@@H](CO)Cc3c[nH]c4ccccc34)c(-c3ccccc3F)cc1CC2 [Example 28, 7-(allyloxy)-2-(2-fluorophenyl)-N—((R)-1-hydroxy-3-(1H-indol-3-yl)propan-2-yl)-6-methoxy-9,10-dihydrophenanthrene-3-carboxamide] | < 100 |
| COc1cc2c(cc1OC)-c1cc(C(=O)N[C@@H](CO)Cc3c[nH]c4ccccc34)c(OCC3CC3)cc1CC2 [Example 8, (R)-2-(cyclopropylmethoxy)-N-(1-hydroxy-3-(1H-indol-3-yl)propan-2-yl)-6,7-dimethoxy-9,10-dihydrophenanthrene-3-carboxamide] | < 100 |
| COc1cc2c(c(OC)c1OC)CCc1cc(-c3sccc3C)c(C(=O)N[C@@H](CO)Cc3c[nH]c4ccccc34)cc1-2 [Example 5, N—((R)-1-hydroxy-3-(1H-indol-3-yl)propan-2-yl)-6,7,8-trimethoxy-2-(3-methylthiophen-2-yl)-9,10-dihydrophenanthrene-3-carboxamide] | < 100 |
| COc1cc2c(cc1OC)-c1cc(C(=O)N[C@@H](CO)Cc3c[nH]c4ccccc34)c(OC3CCCC3)cc1CC2 [Example 9, (R)-2-(cyclopentyloxy)-N-(1-hydroxy-3-(1H-indol-3-yl)propan-2-yl)-6,7-dimethoxy-9,10-dihydrophenanthrene-3-carboxamide] | < 100 |
| COc1cc2c(c(OC)c1OC)CCc1cc(-c3ccccc3)c(C(=O)N[C@@H](CO)Cc3c[nH]c4ccccc34)cc1-2 [Example 1, (R)—N-(1-hydroxy-3-(1H-indol-3-yl)propan-2-yl)-6,7,8-trimethoxy-2-phenyl-9,10-dihydrophenanthrene-3-carboxamide] | < 100 |
| COc1cc2c(cc1OC)-c1cc(C(=O)N[C@@H](CO)Cc3c[nH]c4ccccc34)c(-c3ccncc3F)cc1CC2 [Example 21, 2-(3-fluoropyridin-4-yl)-N—((R)-1-hydroxy-3-(1H-indol-3-yl)propan-2-yl)-6,7-dimethoxy-9,10-dihydrophenanthrene-3-carboxamide] | < 100 |
| COc1cc2c(cc1OC)-c1cc(C(=O)N[C@@H](CO)Cc3c[nH]c4ccccc34)c(-c3ccc(N)cc3F)cc1CC2 [Example 20, 2-(4-amino-2-fluorophenyl)-N—((R)-1-hydroxy-3-(1H-indol-3-yl)propan-2-yl)-6,7-dimethoxy-9,10-dihydrophenanthrene-3-carboxamide] | < 100 |
| COc1cc2c(cc1OC)-c1cc(C(=O)N[C@@H](CO)Cc3c[nH]c4ccccc34)c(C(C)=C(C)C)cc1CC2 [Example 22, (R)—N-(1-hydroxy-3-(1H-indol-3-yl)propan-2-yl)-6,7-dimethoxy-2-(3-methylbut-2-en-2-yl)-9,10-dihydrophenanthrene-3-carboxamide] | < 100 |
| COc1cc2c(cc1C#N)-c1cc(C(=O)N[C@@H](CO)Cc3c[nH]c4ccccc34)c(OC(C)C)cc1CC2 [Example 33, (R)-6-cyano-N-(1-hydroxy-3-(1H-indol-3-yl)propan-2-yl)-2-isopropoxy-7-methoxy-9,10-dihydrophenanthrene-3-carboxamide] | 100 to 1000 |
| COc1cc2c(c(OC)c1OC)CCc1cc(-c3ccccc3F)c(C(=O)N[C@@H](CO)Cc3c[nH]c4ccccc34)cc1-2 [Example 2, 2-(2-fluorophenyl)-N—((R)-1-hydroxy-3-(1H-indol-3-yl)propan-2-yl)-6,7,8-trimethoxy-9,10-dihydrophenanthrene-3-carboxamide] | < 100 |
| COc1cc2c(cc1OC)-c1cc(C(=O)N[C@@H](CO)Cc3c[nH]c4ccccc34)c(-c3ccc(Cl)s3)cc1CC2 [Example 23, (R)-2-(5-chlorothiophen-2-yl)-N-(1-hydroxy-3-(1H-indol-3-yl)propan-2-yl)-6,7-dimethoxy-9,10-dihydrophenanthrene-3-carboxamide] | < 100 |
| COc1cc2c(cc1O)CCc1cc(-c3ccccc3F)c(C(=O)N[C@@H](CO)Cc3c[nH]c4ccccc34)cc1-2 [Example 30, 2-(2-fluorophenyl)-7-hydroxy-N—((R)-1-hydroxy-3-(1H-indol-3-yl)propan-2-yl)-6-methoxy-9,10-dihydrophenanthrene-3-carboxamide] | < 100 |
| COCCOc1cc2c(cc1C(=O)N[C@@H](CO)Cc1c[nH]c3ccccc13)-c1cc(OC)c(OC)cc1CC2 [Example 15, (R)—N-(1-hydroxy-3-(1H-indol-3-yl)propan-2-yl)-6,7-dimethoxy-2-(2-methoxyethoxy)-9,10-dihydrophenanthrene-3-carboxamide] | 100 to 1000 |
| COc1cc2c(cc1OC)-c1cc(C(=O)N[C@@H](CO)Cc3c[nH]c4ccccc34)c(OC(F)C(N)=O)cc1CC2 (stereo partly drawn) [Example 14, 2-(2-amino-1-fluoro-2-oxoethoxy)-N—((R)-1-hydroxy-3-(1H-indol-3-yl)propan-2-yl)-6,7-dimethoxy-9,10-dihydrophenanthrene-3-carboxamide] | 100 to 1000 |
| COc1cc2c(c(OC)c1OC)CCc1cc(-c3cccs3)c(C(=O)N[C@@H](CO)Cc3c[nH]c4ccccc34)cc1-2 [Example 4, (R)—N-(1-hydroxy-3-(1H-indol-3-yl)propan-2-yl)-6,7,8-trimethoxy-2-(thiophen-2-v)-9,10-dihydrophenanthrene-3-carboxamide] | < 100 |
| COc1cc2c(cc1OC)-c1cc(C(=O)N[C@@H](CO)Cc3c[nH]c4ccccc34)c(-c3ccccc3F)cc1CC2 [Example 18, 2-(2-fluorophenyl)-N—((R)-1-hydroxy-3-(1H-indol-3-yl)propan-2-yl)-6,7-dimethoxy-9,10-dihydrophenanthrene-3-carboxamide] | < 100 |

Further lines, results first:

| IC50 [nM] | Structure (SMILES) |
| --- | --- |
| 100 to 1000 | CC(C)Oc1cc2c(cc1C(=O)N[C@@H](CO)Cc1c[nH]c3ccccc13)-c1cc3c(cc1CO2)OCO3 [Example 35, (R)—N-(1-hydroxy-3-(1H-indol-3-yl)propan-2-yl)-3-isopropoxy-8,9-(1′,3′-dioxolo)-6H-benzo[c]chromene-2-carboxamide] |
| < 100 | COc1cc2c(cc1O)COc1cc(-c3ccccc3F)c(C(=O)N[C@@H](CO)Cc3c[nH]c4ccccc34)cc1-2 [Example 44, 3-(2-fluorophenyl)-8-hydroxy-N—((R)-1-hydroxy-3-(1H-indol-3-yl)propan-2-yl)-9-methoxy-6H-benzo[c]chromene-2-carboxamide] |
| < 100 | O=C(N[C@@H](CO)Cc1c[nH]c2ccccc12)c1cc2c(cc1-c1ccccc1F)OCc1cc(C(=O)N3CCOCC3)ccc1-2 [Example 53, 3-(2-fluorophenyl)-N—((R)-1-hydroxy-3-(1H-indol-3-yl)propan-2-yl)-8-(morpholine-4-carbonyl)-6H-benzo[c]chromene-2-carboxamide] |
| < 100 | COc1cc2c(cc1-c1cccnc1)COc1cc(-c3ccccc3F)c(C(=O)N[C@@H](CO)Cc3c[nH]c4ccccc34)cc1-2 [Example 50, 3-(2-fluorophenyl)-N—((R)-1-hydroxy-3-(1H-indol-3-yl)propan-2-yl)-9-methoxy-8-(pyridin-3-v)-6H-benzo[c]chromene-2-carboxamide] |
| < 100 | COc1cc2c(cc1OC)-c1cc(C(=O)N[C@@H](CO)Cc3c[nH]c4ccccc34)c(C=C(C)C)cc1OC2 [Example 41, (R)—N-(1-hydroxy-3-(1H-indol-3-yl)propan-2-yl)-8,9-dimethoxy-3(2-methylprop-1-enyl)-6H-benzo[c]chromene-2-carboxamide] |
| < 100 | COc1cc2c(cc1OC)-c1cc(C(=O)N[C@@H](CO)Cc3c[nH]c4ccccc34)c(-c3sccc3C)cc1OC2 [Example 39, N—((R)-1-hydroxy-3-(1H-indol-3-yl)propan-2-yl)-8,9-dimethoxy-3-(3-methylthiophen-2-yl)-6H-benzo[c]chromene-2-carboxamide] |
| < 100 | COc1cc2c(cc1OC)-c1cc(C(=O)N[C@@H](CO)Cc3c[nH]c4ccccc34)c(OC(C)C)cc1CC2 [Example 58, (R)-2-isopropoxy-N-(1-hydroxy-3-(1H-indol-3-yl)propan-2-yl)-6,7-dimethoxy-9,10-dihydrophenanthrene-3-carboxamide] |
